This note sets out measurements from patent US7368567B2, “Arylsulfonyl benzodioxanes, benzoxazines and benzothiazines as 5-HT6 antagonists” (Roche Palo Alto LLC, priority 2004, dated 2008).

Structures are written as SMILES.

Series [1] deals with T1, recombinant human 5-HT2A receptor (Homo sapiens, UniProt P28223).
T1 construct: expressed in transfected cells
Briefly: Radioligand binding, [3H]Ketanserin competition in CHO-K1 cell membranes. To be noted: [3H]Ketanserin displacement, 32° C., pH 7.4, read-out: pKi for the 5-HT2A receptor (converted). The protocol:
(§1) The binding activity of compounds of this invention in vitro was determined as follows. Duplicate determinations of 5-HT6 ligand affinity were made by competing for binding of [^3H]LSD in cell membranes derived from HEK293 cells stably expressing recombinant human 5-HT6 receptor. Duplicate determinations of 5-HT2A ligand affinity were made by competing for binding of [^3H]Ketanserin (3-(2-(4-(4-fluorobenzoyl)piperidinol)ethyl)-2,4(1H,3H)-quinazolinedione) in cell membranes derived from CHO—K1 cells stably expressing recombinant human 5-HT2A receptor. Membranes were prepared from HEK 293 cell lines by the method described by Monsma et al., Molecular Pharmacology, Vol. 43 pp. 320-327 (1993), and from CHO—K1 cell lines as described by Bonhaus et al., Br J Pharmacol. June;1 15(4):622-8 (1995).
(§2) For estimation of affinity at the 5-HT6 receptor, all determinations were made in assay buffer containing 50 mM Tris-HCl, 10 mM MgSO4, 0.5 mM EDTA, 1 mM ascorbic acid, pH 7.4 at 37° C., in a 250 microliter reaction volume. […]
(§3) Assay tubes containing [^3H] […] LSD or [^3H]Ketanserin were determined as radioactive counts per minute using Packard TopCount.
(§4) Displacement of [^3H]LSD or [^3H]Ketanserin from the binding sites was quantified by fitting concentration-binding data to a 4-parameter logistic equation: […]

Series [2] deals with T2, recombinant human 5-HT6 receptor (Homo sapiens, UniProt P50406).
T2 construct: expressed in transfected cells
As to the kind of experiment: Radioligand binding, [3H]LSD competition in HEK293 cell membranes. To be noted: [3H]LSD displacement, 37° C., pH 7.4, read-out: pKi for the 5-HT6 receptor (converted). The method, then: as §1, §2, §3, §4

T2 sequence (P50406 whole entry): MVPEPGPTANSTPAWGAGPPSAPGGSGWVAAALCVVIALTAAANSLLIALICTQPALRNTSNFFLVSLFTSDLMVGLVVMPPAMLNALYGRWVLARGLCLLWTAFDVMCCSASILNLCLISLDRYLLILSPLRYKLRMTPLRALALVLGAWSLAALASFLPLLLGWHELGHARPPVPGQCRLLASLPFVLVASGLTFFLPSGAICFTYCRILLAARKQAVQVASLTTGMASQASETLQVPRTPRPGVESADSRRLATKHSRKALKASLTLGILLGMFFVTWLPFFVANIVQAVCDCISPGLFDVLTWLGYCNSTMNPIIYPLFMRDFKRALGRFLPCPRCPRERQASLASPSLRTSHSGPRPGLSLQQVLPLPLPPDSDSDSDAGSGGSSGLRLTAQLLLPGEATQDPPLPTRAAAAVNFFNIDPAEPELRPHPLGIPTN
T1 sequence (P28223 whole entry): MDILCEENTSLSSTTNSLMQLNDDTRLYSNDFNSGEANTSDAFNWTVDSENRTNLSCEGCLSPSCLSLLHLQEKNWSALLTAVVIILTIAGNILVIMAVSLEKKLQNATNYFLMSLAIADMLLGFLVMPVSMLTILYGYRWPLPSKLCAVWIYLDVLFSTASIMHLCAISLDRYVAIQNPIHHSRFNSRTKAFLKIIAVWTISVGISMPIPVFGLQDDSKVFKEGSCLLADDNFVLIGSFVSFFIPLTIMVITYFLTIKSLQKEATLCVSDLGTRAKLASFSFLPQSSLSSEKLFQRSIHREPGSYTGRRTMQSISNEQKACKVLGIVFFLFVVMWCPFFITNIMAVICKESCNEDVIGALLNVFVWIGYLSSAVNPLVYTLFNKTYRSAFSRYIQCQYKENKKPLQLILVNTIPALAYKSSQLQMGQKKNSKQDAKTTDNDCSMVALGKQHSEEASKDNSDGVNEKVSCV

Broadly, the melting point is the temperature of the solid-liquid transition. In turn, `CNC[C@H]1COc2ccc(S(=O)(=O)c3cccc(F)c3)cc2O1` [[7-(3-Fluoro-benzenesulfonyl)-2,3-dihydro-benzo[1,4]dioxin-2-(S)-ylmethyl]-methyl-amine] yielded a melting point of 245.8 to 246.4 °C. The Ki in series [1] is about 18.2 nM. Consider `CNC[C@@H]1COc2ccc(S(=O)(=O)c3ccccc3)cc2O1` [(7-Benzenesulfonyl-2,3-dihydro-benzo[1,4]dioxin-2-(R)-ylmethyl)-methyl-amine], for which the Ki in series [2] is about 0.166 nM.
